Molecules are shown by their SMILES.

The test system of this experiment is 4T1 tumor (highly metastatic, syngeneic mammary cancer cell line). Nature of the experiment: Survival of tumor-bearing mice after cyclophosphamide, intratumoral nanoparticles and cryoablation or resection. The following applies: Cy 200 mg/kg intraperitoneally day 14 plus cryoablation day 16, compared with Cy plus surgical resection of the subcutaneous nodule; FIG. 3A. Type of experiment: in vivo, BALB/c mice. As for the experimental part: The particles are suspended with a pipette for about one minute. […] The particles in PBS should not be used if kept for more than 12 hours. The particles are lightly sonicated with a bath sonicator, or vortexed to make an even suspension. The particles should not sit idly in the syringe as they will settle and then clog the syringe. Ideally, the injection should be made within 10-30 seconds after drawing the well-mixed nanoparticle suspension into the syringe. For mice with a tumor of 5-8 mm diameter, 100 mg of particles is injected directly into the tumor in a volume of 0.1 ml.
Groups of 10 BALB/c mice each received a subcutaneous inoculation of 10^4 cells of the highly metastatic, syngeneic mammary cancer cell line on the flank.

On to `O=P1(N(CCCl)CCCl)NCCCO1` (stereo not shown) [cyclophosphamide], for which the survival result is recorded as “did not survive significantly longer”.

The record behind these values is US20130302409A1, “METHODS AND COMPOSITIONS FOR CANCER IMMUNOTHERAPY” (priority 2010, published 2013).
